Results taken from patent US9527876B2, “Prodrugs of bicyclic substituted pyrimidine type PDE-5 inhibitors” (Xuanzhu Pharma Co., Ltd., priority 2013, dated 2016).
Values after ≈ are worked out from the molar mass of the structure shown. Read-outs that look alike come from different tables or passages of the source. Blank lines part the entries; values can stand above or below the compound they belong to.

Tests used:
[1] = in vivo, background statement; cited from earlier work
[2] = Rat pharmacokinetics after intragastric administration (LC-MS/MS of plasma); type: in vivo, rats; conditions: for F: rats, intragastric, absolute bioavailability
Source text: Instrument and equipment: API4000 LC-MS/MS

in vivo = conditions: rat, iv, 2 mg/kg
Experimental: (§1) Chromatographic column: Agilent XDBC18(2.1×50 mm, 5 μm)
(§2) Rat blood collection: animal was fixed, heated at tail with water-bath 10 min before each time point, about 200 μL of blood was collected from caudal vein, and the collected blood was placed in anticoagulative tube containing heparin sodium. Blood sample was centrifuged under 8000 rpm at 4° C. for 6 min to obtain plasma sample, and the plasma must be prepared within 30 min after blood collection. The plasma was stored in −80° C. refrigerator before test.
(§3) Experimental Method • 1) Take a sample to be tested from refrigerator (−80° C.), melt in situ at room temperature, then eddy for 5 min; • 2) Precisely move 20 μL of sample into 1.5 mL centrifuge tube; • 3) Add 200 μL of internal standard solution; • 4) Eddy for 3 min, then centrifuge for 5 min (12000 rpm); • 5) Precisely move 50 μL of supernatant and add into 150 μL of water, eddy for 3 min, and load to LC-MS/MS for analysis.
(§4) Test sample (plasma sample) concentrations were output by using Analyst 1.5.1 of AB Company. […] Mean values, standard deviation and variable coefficient (those directly outputed by Analyst 1.5.1 were not calculated), were calculated by Microsoft Excel. PK parameter was calculated by using software Pharsight Phoenix 6.2.
(§5) Wherein T1/2 represents half-life period; AUCinf represents area under drug-time curve 0→∞; CL represents clearance rate; Vss represents apparent volume of distribution; Cmax represents peak concentration of the compound in plasma; Tmax represents the time at which the compound reached the peak concentration; F % represents absolute bioavailability.

PDE-5 = molecular target: T1, PDE-5 (Homo sapiens, UniProt O76074); test: Scintillation counter (Topcount) PDE-5 enzyme assay; type: biochemical
T1 construct: PDE-5 source, human platelets; from tissue; host or cells: human platelets

[3] = rat, in vivo, iv, 1 mg/kg
Experimental: as §1, §2, §3, §4, §5

[4] = Solubility of Compound 1 in buffer solutions of different pH (visual observation); type: physicochemical; conditions: for solubility at 5 min: aqueous buffer, thermodynamic from solid
Experimental: 1. Method for preparing sample of Compound 1, 6 parts of test sample were precisely weighed, each was 2 mg and was separately added to 40 μL of buffer solutions of pH 4, pH 5, pH 6, pH 7, pH 8, pH 9, respectively. Jolted (ultrasonic treatment for 5 min) and detected by visual observation.
1.02 g of potassium hydrogen phthalate was weighed, added to 0.05 mL of 0.2 mol/L hydrochloric acid solution and an appropriate amount of water for dissolution, diluted by adding water to 100 mL, mixed homogeneously to obtain the subject solution.
1.02 g of potassium hydrogen phthalate was weighed, added to 11.3 mL of 0.2 mol/L sodium hydroxide solution and an appropriate amount of water for dissolution, diluted by adding water to 100 mL, mixed homogeneously to obtain the subject solution.
0.68 g of potassium dihydric phosphate was weighed, added to 2.8 mL of 0.2 mol/L sodium hydroxide solution and an appropriate amount of water for dissolution, diluted by adding water to 100 mL, mixed homogeneously to obtain the subject solution.
0.68 g of potassium dihydric phosphate was weighed, added to 14.55 mL of 0.2 mol/L sodium hydroxide solution and an appropriate amount of water for dissolution, diluted by adding water to 100 mL, mixed homogeneously to obtain the subject solution.
0.75 g of potassium chloride and 0.62 g of boric acid were weighed, added to 3.9 mL of 0.2 mol/L sodium hydroxide solution and an appropriate amount of water for dissolution, diluted by adding water to 200 mL, mixed homogeneously to obtain the subject solution.
0.75 g of potassium chloride and 0.62 g of boric acid were weighed, added to 20.8 mL of 0.2 mol/L sodium hydroxide solution and an appropriate amount of water for dissolution, diluted by adding water to 200 mL, mixed homogeneously to obtain the subject solution.

[5] = Rat pharmacokinetics after intravenous injection (LC-MS/MS of plasma); conditions: for concentration at 0.083 h: 1 mg/kg, Concentration of Compound 1 in rat body
Experimental: as §1, §2, §3, §4, §5

[6] = Solubility in ultrapure water (visual observation); type: physicochemical
Experimental: Method for preparing samples of Compounds 4, 4-A, Compounds 9, and 9-B: 2 mg of test sample was taken, gradually added to ultrapure water, treated with ultrasound for 5 min each time until the sample was completely dissolved by visional observation.

[7] = Solubility of Compound Q in buffer solutions of different pH (HPLC); type: physicochemical; conditions: aqueous buffer, thermodynamic from solid, 1 mg in 1 mL, read-out: Measured concentration (solubility)
Experimental: 2. Method for preparing sample of Compound Q, 4 parts of test sample were precisely weighed, each was 1 mg and was separately added to 1 mL of buffer solutions of pH 3, pH 5, pH 7, pH 9, treated with ultrasound for 5 min and filtered through 0.45 μm organic filtration membrane. The filter liquors were used as test sample solutions. 10 μL of each was injected into high performance liquid chromatograph, and peak areas were recorded.
4.88 mg of test sample was precisely weighed, placed in 10 mL volumetric flask, added to 1 mL of methanol for dissolution, then diluted with methanol to constant volume to obtain a solution containing 0.488 mg of control per 1 mL, which was used as mother liquor A. The mother liquor A was gradually diluted with methanol to obtain control solutions containing 0.0488 mg or 0.00976 mg per 1 mL.
Linear regression was performed by using control concentration (C) as abscissa, and peak area (Y) as ordinate so as to obtain a linear equation. The concentrations of test sample solutions were obtained by putting the peak areas of test sample solutions into the linear equation.
The control linear equation of Compound Q is: Y=24262C, correlation coefficient r=1.0000.
Instrument and equipment: Agilent 1200 HPLC
Chromatography column: YMC-Pack-Pro C18(150×4.6 mm, 5 μm)
Buffer solution: 0.02 mol/L ammonium dihydrogen phosphate (added 0.2% triethylamine, and regulated with phosphoric acid to pH=6.0)
Phase A: acetonitrile-buffer solution=[…], Phase B: acetonitrile-buffer solution=80:20
Mobile phase: Phase A: Phase B=65:35
Detection wavelength: 254 nm Sample size: 10 μL

[8] = in human, background statement; cited from earlier work

SMILES: COc1ccc(CN=c2[nH]c(N3CCC[C@H]3CO)ncc2C(=O)NCc2ncccn2)cc1Cl [Avanafil]
half-life [1]: about 1.2 h
F ([2]; dose 2 mg/kg (Table 5)): 4.5%
Vd (in vivo): 3.56 L/kg
clearance (in vivo): 88.5 mL/min/kg
IC50 (PDE-5): 3.1 nM
AUCinf [3]: 382 ng·h/mL
T1/2 [3]: 30 min

SMILES: COc1ccc(CNc2nc(N3CC4CC4C3)ncc2C(=O)N[C@H]2CC[C@H](O)CC2)cc1Cl (stereo partly drawn) [Compound Q, 2-(3-azabicyclo[3.1.0]hexan-3-yl)-4-(3-chloro-4-methoxybenzylamino)-N-(trans-4-hydroxycyclohexyl)pyrimidine-5-carboxamide]
solubility at 5 min ([7]; buffer solution pH 3): 371 µg/mL (≈ 786 µM)
solubility at 5 min ([7]; buffer solution pH 5): 0.276 µg/mL (≈ 0.585 µM)
solubility at 5 min ([7]; buffer solution pH 7): 0.124 µg/mL (≈ 0.263 µM)
solubility at 5 min ([7]; buffer solution pH 9): 0.128 µg/mL (≈ 0.271 µM)

SMILES: CN1CC(=O)N2[C@H](c3ccc4c(c3)OCO4)c3[nH]c4ccccc4c3C[C@@H]2C1=O [Tadalafil]
half-life [8]: about 16 h

Other lines, results leading:

solubility at 5 min ([4]; buffer solution pH 5, 2 mg in 40 μL): ≥ 50000 µg/mL
solubility at 5 min ([4]; buffer solution pH 6, 2 mg in 40 μL): ≥ 50000 µg/mL
solubility at 5 min ([4]; buffer solution pH 7, 2 mg in 40 μL): ≥ 50000 µg/mL
solubility at 5 min ([4]; buffer solution pH 8, 2 mg in 40 μL): ≥ 50000 µg/mL
solubility at 5 min ([4]; buffer solution pH 9, 2 mg in 40 μL): ≥ 50000 µg/mL
Solubility, in words ([4]; buffer solution pH 4, compared with pH 5 to 9): decreased
Phenomenon on dissolution ([4]; buffer solution pH 4, 2 mg in 40 μL): precipitated after about 5 min
Plasma detection of Compound 1 at each time point ([2]; after intragastric administration (PO), LC-MS/MS): not detected
Plasma detection of Compound 1 at all other time points ([5]; after IV injection, time points other than 0.083 h, LC-MS/MS): could not be detected
concentration at 0.083 h ([5]; rat, plasma, iv, Mean, IV 1 mg/kg, mean of 3 rats): 165 ng/mL
concentration at 0.083 h ([5]; rat, plasma, iv, Rat 1, IV 1 mg/kg, Rat 1): 162 ng/mL
concentration at 0.083 h ([5]; rat, plasma, iv, Rat 2, IV 1 mg/kg, Rat 2): 183 ng/mL
concentration at 0.083 h ([5]; rat, plasma, iv, Rat 3, IV 1 mg/kg, Rat 3): 151 ng/mL
Time of conversion of prodrug Compound 1 into Compound Q ([5]; rats, after IV injection): ≤ 0.083 h
SMILES: COc1ccc(CNc2nc(N3CC4CC4C3)ncc2C(=O)N[C@H]2CC[C@H](OP(=O)([O-])[O-])CC2)cc1Cl.[Na+].[Na+] (stereo partly drawn) [Compound 1, N-trans-4-(2-(3-azabicyclo[3.1.0]hexan-3-yl)-4-(3-chloro-4-methoxybenzylamino)pyrimidine-5-carboxamido)cyclohexyl phosphate disodium salt]

Solubility in water relative to original drug Compound 4-A [6]: 2000 times
solubility at 5 min ([6]; thermodynamic from solid, ultrasound 5 min): ≥ 200000 µg/mL
SMILES: COc1ccc(CNc2nc(N3CCC4(CC4)C3)ncc2C(=O)N[C@H]2CC[C@H](OP(=O)([O-])[O-])CC2)cc1Cl.[Na+].[Na+] [Compound 4, N-trans-4-(4-((3-chloro-4-methoxybenzyl)amino)-2-(5-azaspiro[2.4]heptan-5-yl)pyrimidine-5-carboxamido)cyclohexyl phosphate disodium salt]

F ([2]; dose 5 mg/kg (Table 5)): 65%
Vd ([5]; rat, plasma, iv, 2 mg/kg): 4.48 L/kg
clearance ([5]; rat, plasma, iv, 2 mg/kg): 13 mL/min/kg
SMILES: COc1ccc(CNc2nc(N3CC4CC4C3)ncc2C(=O)N[C@H]2CC[C@H](O)CC2)cc1C (stereo partly drawn) [Compound 9-B, 2-(3-azabicyclo[3.1.0]hexan-3-yl)-N-(trans-4-hydroxycyclohexyl)-4-(4-methoxy-3-methylbenzylamino)pyrimidine-5-carboxamide]
